Data as given in PMC8541513, “Stereoselective Synthesis of the Di-Spirooxindole Analogs Based Oxindole and Cyclohexanone Moieties as Potential Anticancer Agents” (Molecules, 2021).
Read-outs that look alike come from different tables or passages of the source.

What was measured:
Prostate PC3 = experiment: MTT anticancer assay, prostate PC3 cells; format: cell-based; settings: Homo sapiens, PC-3, 48 h, 1-30 µM, ± SD of three independent experiments
Description: (§1) The antiproliferative activity against four cancer cell lines, including prostate PC3, cervical HeLa, and triple-negative breast cancer (MCF-7 and MDA-MB231) was evaluated by MTT assay, while standard drug doxorubicin was used as a reference for comparison (Table 1).
(§2) Cytotoxicity against BJ human fibroblast cells and cytotoxicity against PC3, HeLa, MCF-7, and MDA-MB231 cancer cell lines were evaluated by following the procedure as described in the literature (Supplementary Materials). […]
(§3) The Biological Activity Assays Protocols
(§4) Cytotoxic activity of compounds was evaluated in 96-well flat-bottomed micro plates by using the standard MTT (3-[4, 5-dimethylthiazole-2-yl]-2, 5-diphenyl-tetrazolium bromide) colorimetric assay.
(§5) For this purpose, PC3 cells (Prostate Cancer) / BJ Human fibroblast cells / HeLa cells (Cervical Cancer) / MCF-7 and MDA-MB-231 breast cancer cell line were cultured in Dulbecco’s Modified Eagle Medium, supplemented with 5% of fetal bovine serum (FBS), 100 IU/ml of penicillin and 100 µg/ml of streptomycin in 75 cm2 flasks, and kept in 5% CO2 incubator at 37 °C. Exponentially growing cells were harvested, counted with haemocytometer and diluted with a particular medium. Cell culture with the concentration of 1x10^5 cells/ml was prepared and introduced (100 µL/well) into 96-well plates. After overnight incubation, medium was removed and 200 µL of fresh medium was added with different concentrations of compounds (1-30µM). After 48 hrs, 200 µL MTT (0.5 mg/ml) was added to each well and incubated further for 4 hrs. Subsequently, 100µL of DMSO was added to each well. The extent of MTT reduction to formazan within cells was calculated by measuring the absorbance at 570 nm, using a micro plate reader (Spectra Max plus, Molecular Devices, CA, USA). The cytotoxicity was recorded […]
(§6) (1 picture or pasted object on this page, not shown here) […]
(§7) as concentration causing 50% growth inhibition (IC50) for PC3 cells. The percent inhibition was calculated by using the following formula:
(§8) % inhibition = 100-((mean of O.D of test compound – mean of O.D of negative control)/ (mean of O.D of positive control – mean of O.D of negative control)*100).
(§9) The results (% inhibition) were processed by using Soft- Max Pro software (Molecular Device, USA).
(§10) Standard drug used in the MTT assay was doxorubicin. […]

Cervical HeLa = experiment: MTT anticancer assay, cervical HeLa cells; format: cell-based; settings: 48 h, 1-30 µM, ± SD of three independent experiments; for IC50: Homo sapiens, HeLa
Description: as §1, §2, §3, §4, §5, §6, §7, §8, §9, §10

Breast MDA-MB231 = experiment: MTT anticancer assay, breast MDA-MB231 cells; format: cell-based; settings: Homo sapiens, MDA-MB-231, 48 h, 1-30 µM, ± SD of three independent experiments
Description: as §1, §2, §3, §4, §5, §6, §7, §8, §9, §10

Breast MCF-7 = experiment: MTT anticancer assay, breast MCF-7 cells; format: cell-based; settings: Homo sapiens, MCF7, 48 h, 1-30 µM, ± SD of three independent experiments
Description: as §1, §2, §3, §4, §5, §6, §7, §8, §9, §10

Human Fibroblast BJ = experiment: MTT cytotoxicity assay against BJ human fibroblast cells; format: cell-based; settings: 48 h, 1-30 µM, ± SD of three independent experiments
Description: as §2, §3, §4, §5, §6, §7, §8, §9, §10

[1] = test system: MCF-7 breast cancer cells; parameters: method as in PMID 28126436, PMID 29413708; settings: cited from earlier work
HeLa cancer cell line = test system: HeLa cancer cell line; parameters: method as in doi:10.1016/j.molstruc.2019.03.032; settings: cited from earlier work
HeLa cancer cells = test system: HeLa cancer cells; parameters: method as in PMID 30844686; settings: cited from earlier work
[2] = test system: K562 leukemia cancer cells; parameters: method as in PMID 28126436, PMID 29413708; settings: cited from earlier work
PC-3 = test system: PC-3; parameters: method as in PMID 30802707; settings: cited from earlier work
HCT-116 = test system: HCT-116; parameters: method as in PMID 30802707; settings: cited from earlier work
HepG2 [3] = test system: HepG2; parameters: method as in PMID 30802707; settings: cited from earlier work
HepG2 [4] = test system: HepG2; parameters: method as in Barakat et al. (15); settings: ref Barakat et al. (15); cited from earlier work

| SMILES | IC50 (Prostate PC3) [µM] | IC50 (Cervical HeLa) [µM] | IC50 (Breast MDA-MB231) [µM] | IC50 (Breast MCF-7) [µM] | IC50 (Human Fibroblast BJ) [µM] | further results |
| --- | --- | --- | --- | --- | --- | --- |
| O=C1/C(=C/c2ccc(C(F)(F)F)cc2)CCC[C@@]12[C@H](c1ccc(C(F)(F)F)cc1)[C@H]1C[C@@H]3CCCC[C@@H]3N1[C@]21C(=O)Nc2cc(Cl)ccc21 [Compound 4m, (1. S,1′S,3′S,4a′S,8a′S,9a′R)-6″-Chloro-3-((E)-4-(trifluoromethyl)benzylidene)-1′-(4-(trifluoromethyl)phenyl)-4a′,5′,6′,7′,8′,8a′,9′,9a′-octahydro-1′H-dispiro[cyclohexane-1,2′-pyrrolo[1,2-a]indole-3′,3″-indoline]-2,2″-dione] | > 30 | 24.6 ± 0.4 | > 30 | > 30 | > 30 | melting point: 78 to 79 °C |
| Cc1ccc2c(c1)[C@]1(C(=O)N2)N2[C@H](C[C@@H]3CCCC[C@@H]32)[C@@H](c2ccc(C(F)(F)F)cc2)[C@@]12CCC/C(=C\c1ccc(C(F)(F)F)cc1)C2=O [Compound 4n, (1. S,1′S,3′S,4a′S,8a′S,9a′R)-5″-Methyl-3-((E)-4-(trifluoromethyl)benzylidene)-1′-(4-(trifluorom-thyl)phenyl)-4a′,5′,6′,7′,8′,8a′,9′,9a′-octahydro-1′H-dispiro[cyclohexane-1,2′-pyrrolo[1,2-a]indole-3′,3″-indoline]-2,2″-dione] | > 30 | > 30 | > 30 | > 30 | > 30 | melting point: 73 to 74 °C; IC50, Cervical HeLa (Cervical HeLa): inactive |
| O=c1[nH]cc(F)c(=O)[nH]1 [Compound 5-FU, 5-fluorouracil] | – | – | – | – | – | IC50 [1]: 78.28 ± 0.2 µM |
| COc1cccc2c1C(=O)c1c(O)c3c(c(O)c1C2=O)C[C@@](O)(C(=O)CO)C[C@@H]3O[C@H]1C[C@H](N)[C@H](O)[C@H](C)O1 [Doxorubicin, reference compound] | 1.9 ± 0.4 | 0.9 ± 0.14 | 0.32 ± 0.002 | 0.79 ± 0.05 | > 30 | IC50 (HeLa cancer cell line): 1.2 µM |
| O=C(c1ccccn1)[C@@H]1[C@@H](c2ccccc2Cl)[C@H](c2ccccc2)N[C@@]12C(=O)Nc1ccccc12 [III] | – | – | – | – | – | selectivity between HeLa cancer cells and Vero healthy cells (HeLa cancer cells): 3 fold |
| O=C1C(=Cc2ccc(Br)cc2)CCCC12C1CCCN1C1(C(=O)Nc3ccccc31)C2c1ccc(Br)cc1 (centres unmarked) [VIII] | – | – | – | – | – | IC50 [1]: 15.32 ± 0.02 µM |
| COc1ccc(C=C2CCCC3(C2=O)C(c2ccc(OC)cc2)C2CSCN2C32C(=O)Nc3ccccc32)cc1 (centres unmarked) [VII] | – | – | – | – | – | IC50 [2]: 13.4 ± 0.14 µM |
| O=C(c1ccc(F)cc1)[C@H]1[C@H](c2ccc(Cl)cc2Cl)C2CSCN2[C@]12C(=O)Nc1ccccc12 (some centres unmarked) [VI] | – | – | – | – | – | IC50 (HeLa cancer cell line): 11.2 µM |
| O=C(/C=C/c1ccc(Cl)cc1Cl)[C@H]1[C@H](c2ccc(Cl)cc2Cl)[C@H]2CSCN2[C@]12C(=O)Nc1ccccc12 [V] | – | – | – | – | – | IC50 (PC-3): < 4 µM; selectivity index for the cancer cells versus the normal cells (HCT-116; HCT-116, HepG2, PC-3 versus normal cells): > 2; IC50 (HCT-116): < 4 µM; IC50 (HepG2 [3]): < 4 µM |
| N.N.[Cl][Pt][Cl] [cisplatin] | – | – | – | – | – | IC50 (HepG2 [4]): 5.5 µM |
